Bridge positions count the residues as written; N and C are the ends. Peptide text beside a SMILES is read from it.
Legend:
HIV (HTLV-IIIB) = assay: Inhibitory activity against HIV infection and proliferation in MT-4 cells (indirect fluorescence antibody method); format: cell-based, human immunodeficiency virus (HIV); details: three days, positive control 26.0%
Method: (Method) Cultured supernatant of MOLT-4/HTLV-IIIB cells, a HTLV-IIIB persistent infected strain of HIV, was used as a viral solution. The supernatant was kept at -80° C. Human T cell line MT-4 was used for the test. MT-4 was subcultured in RPMI 1640 medium containing 10% fetal calf serum (FCS). Sample, LF derived peptide, was dissolved in RPMI 1640 medium and one ml of the diluted solution at various concentrations was added to the cells. The inoculated MT-4 test sample was incubated for 60 minutes and infected with HIV at a concentration of moi […]=0.01 and one ml of the cell solution adjusted at a cell density of 3×10^5 cells/ml was added. The cells were cultured for three days : and HIV infected cells were determined with an indirect fluorescence antibody method.
HIV infected cells were determined by the indirect fluorescence antibody method using HIV infected patient serum as a primary antibody. […] HIV infected MT-4 cells cultured without addition of the sample was used as a positive control and cells without addition of viral solution was cultured to make a negative control group.

[1] = system: influenza virus A/PR/8/34; details: 100 μl of one mg/ml solution in allantoic cavity three hours before virus; average of five eggs
[2] = system: Human CMV (Tanaka strain); assay: Inhibitory activity against human CMV infection and proliferation in HELF cells (fluorescence staining); format: cell-based, Human cytomegalo virus; details: 24 hrs., concentration not given
Method: (Method) LF derived peptide was dissolved in 2% serum added MEM medium to give five mg/ml solution, filtered and sterilized to make a stock solution. The stock solution was diluted with 2% serum added MEM medium on use. Samples containing human embryo lung fibroblast cells (HELF cells) were suspended in 2% serum added MEM medium and incubated for 10 minutes. The cells were collected by centrifugation, washed twice with 2% serum added MEM medium and suspended in 2% serum added MEM medium. Human cytomegalo virus [Human CMV (Tanaka strain)] was added, incubated for 24 hrs., fluorescence stained with human CMV positive serum and the adsorption rate of human CMV to the cells was determined.
The results are judged from the numbers of fluorescent stained cells per one cover slip.

[3] = system: mouse cytomegalo virus (mouse CMV); assay: In vivo inhibitory activity against mouse CMV infection (survival of mice); details: after 10 days
Method: (Method) Male Balbc/AJcl mice, 4-week-old (10 in one group) were used. The sample was dissolved in phosphate buffer saline solution (PBS) and intraperitoneally administered to mice.

Compound | ratio of stained (HIV infected) cells (HIV (HTLV-IIIB); sample 63 μg/ml) [%] | ratio of stained (HIV infected) cells (HIV (HTLV-IIIB); sample 125 μg/ml) [%] | ratio of stained (HIV infected) cells (HIV (HTLV-IIIB); sample 250 μg/ml) [%] | ratio of stained (HIV infected) cells (HIV (HTLV-IIIB); sample 500 μg/ml) [%] | ratio of stained (HIV infected) cells (HIV (HTLV-IIIB); sample 1,000 μg/ml) [%] | Inhibitory rate of infection and proliferation of influenza virus [1] [%] | Inhibitory rate of human CMV infection [2] [%] | Survival rate ([3]; 0.02 g/kg of body weight i.p. 24 hrs. before mouse CMV) [%] | Survival rate ([3]; 0.05 g/kg of body weight i.p. 24 hrs. before mouse CMV) [%] | Survival rate ([3]; 0.10 g/kg of body weight i.p. 24 hrs. before mouse CMV) [%] | Survival rate ([3]; 0.50 g/kg of body weight i.p. 24 hrs. before mouse CMV) [%]
CC[C@H](C)[C@H](NC(=O)[C@H](CS)NC(=O)[C@H](CO)NC(=O)[C@@H](NC(=O)[C@@H]1CCCN1C(=O)[C@@H]1CCCN1C(=O)CNC(=O)[C@H](CCCNC(=N)N)NC(=O)[C@@H](NC(=O)[C@H](CCCCN)NC(=O)[C@H](CCCNC(=N)N)NC(=O)[C@H](CCSC)NC(=O)[C@H](CC(N)=O)NC(=O)[C@H](CCCNC(=N)N)NC(=O)[C@H](CCC(N)=O)NC(=O)[C@H](Cc1c[nH]c2ccccc12)NC(=O)[C@H](CCC(N)=O)NC(=O)[C@H](Cc1ccccc1)NC(=O)[C@H](CS)NC(=O)[C@H](CCCCN)NC(=O)[C@@H](N)[C@@H](C)O)C(C)C)C(C)C)C(=O)N[C@@H](CCCCN)C(=O)N[C@@H](CCCNC(=N)N)C(=O)N[C@@H](CC(=O)O)C(=O)N[C@@H](CO)C(=O)O [[20CysSH, 37CysSH] Human LF (18-42)] (H-TKCFQWQRNMRKVRGPPVSCIKRDS-OH) | 17 | 8.5 | 6.2 | 3.1 | 1.4 | 96.0 | 100.0 | – | – | – | –
CC[C@H](C)[C@@H]1NC(=O)[C@H](CO)NC(=O)[C@@H]2CCCN2C(=O)[C@H](C)NC(=O)CNC(=O)[C@H](CC(C)C)NC(=O)[C@H](CCCCN)NC(=O)[C@H](CCCCN)NC(=O)[C@H](CCSC)NC(=O)[C@H](CCCNC(=N)N)NC(=O)[C@H](Cc2c[nH]c3ccccc23)NC(=O)[C@H](CCC(N)=O)NC(=O)[C@H](Cc2c[nH]c3ccccc23)NC(=O)[C@H](CCCNC(=N)N)NC(=O)[C@H](CCCNC(=N)N)NC(=O)[C@@H](NC(C)=O)CSSC[C@@H](C(N)=O)NC(=O)[C@H]([C@@H](C)O)NC1=O [Ac-bovine LF (19-36)-NH2, N-acetyl-bovine LF (19-36)-amide] (Ac-CRRWQWRMKKLGAPSITC-NH2; disulfide 1-18) | 17 | 8.8 | 6.1 | 5.0 | 3.6 | 87.5 | 96.5 | – | – | – | –
CC[C@H](C)[C@H](NC(=O)[C@H](CO)NC(=O)[C@@H]1CCCN1C(=O)[C@H](C)NC(=O)CNC(=O)[C@H](CC(C)C)NC(=O)[C@H](CCCCN)NC(=O)[C@H](CCCCN)NC(=O)[C@H](CCSC)NC(=O)[C@H](CCCNC(=N)N)NC(=O)[C@H](Cc1c[nH]c2ccccc12)NC(=O)[C@H](CCC(N)=O)NC(=O)[C@H](Cc1c[nH]c2ccccc12)NC(=O)[C@H](CCCNC(=N)N)NC(=O)[C@H](CCCNC(=N)N)NC(=O)[C@H](CS)NC(=O)[C@H](CCCCN)NC(=O)[C@@H](N)Cc1ccccc1)C(=O)N[C@H](C(=O)N[C@@H](CS)C(=O)N[C@H](C(=O)N[C@@H](CCCNC(=N)N)C(=O)N[C@@H](CCCNC(=N)N)C(=O)N[C@@H](C)C(=O)N[C@@H](Cc1ccccc1)C(=O)O)C(C)C)[C@@H](C)O [[19 CysSH, 36 CysSH] Bovine LF (17-41)] | 19 | 8.3 | 6.4 | 2.9 | 1.2 | 92.0 | 100.0 | – | – | – | –
CC[C@H](C)[C@@H]1NC(=O)[C@H](CO)NC(=O)[C@@H]2CCCN2C(=O)[C@H](C)NC(=O)CNC(=O)[C@H](CC(C)C)NC(=O)[C@H](CCCCN)NC(=O)[C@H](CCCCN)NC(=O)[C@H](CCSC)NC(=O)[C@H](CCCNC(=N)N)NC(=O)[C@H](Cc2c[nH]c3ccccc23)NC(=O)[C@H](CCC(N)=O)NC(=O)[C@H](Cc2c[nH]c3ccccc23)NC(=O)[C@H](CCCNC(=N)N)NC(=O)[C@H](CCCNC(=N)N)NC(=O)[C@@H](NC(=O)[C@H](CCCCN)NC(=O)[C@@H](N)Cc2ccccc2)CSSC[C@@H](C(=O)N[C@H](C(=O)N[C@@H](CCCNC(=N)N)C(=O)N[C@@H](CCCNC(=N)N)C(=O)N[C@@H](C)C(=O)N[C@@H](Cc2ccccc2)C(=O)O)C(C)C)NC(=O)[C@H]([C@@H](C)O)NC1=O [Bovine LF (17-41)] | 17 | 7.9 | 5.9 | 2.7 | 1.0 | 93.7 | 95.7 | 30 | 60 | 100 | 100
CSCC[C@@H]1NC(=O)[C@H](CC(N)=O)NC(=O)[C@H](CCCNC(=N)N)NC(=O)[C@H](CCC(N)=O)NC(=O)[C@H](Cc2c[nH]c3ccccc23)NC(=O)[C@H](CCC(N)=O)NC(=O)[C@H](Cc2ccccc2)NC(=O)[C@@H](NC(C)=O)CSSC[C@@H](C(N)=O)NC(=O)[C@H](CO)NC(=O)[C@H](C(C)C)NC(=O)[C@@H]2CCCN2C(=O)[C@@H]2CCCN2C(=O)CNC(=O)[C@H](CCCNC(=N)N)NC(=O)[C@H](C(C)C)NC(=O)[C@H](CCCCN)NC(=O)[C@H](CCCNC(=N)N)NC1=O [Ac-human LF (20-37)-NH2, N-acetyl-human LF (20-37)-amide] (Ac-CFQWQRNMRKVRGPPVSC-NH2; disulfide 1-18) | 18 | 9.8 | 7.7 | 4.5 | 3.9 | 93.7 | 96.1 | – | – | – | –
Bovine LF: bovine lactoferrin, an iron-binding protein secreted in milk (CRRWQWRMKKLGAPSITC) | 18 | 8.0 | 6.2 | 4.8 | 3.6 | 87.5 | 95.7 | – | – | – | –

From patent US5565425A, “Viral infection and proliferation inhibitors” (Snow Brand Milk Products Co., Ltd, priority 1993, dated 1996)
